Data: PubChem BioAssay (NCI)
Where “and” joins values, the source holds several entries; their conditions need not be identical. Equal values may be shown once.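 Step 1: Grow cells in 96-well plates. Step 2: Expose to compound for 48 hours at 5 concentrations. Step 3: Interpolate endpoints linearly; if unreached, use highest concentration. At the GI50, growth is halved. TGI denotes the concentration required for complete inhibition of growth.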

How the values were obtained:
Assay in all cases: NCI tumour cell line growth inhibition, 48 h
BT-549 breast = tested on: BT-549 breast
DU-145 prostate = tested on: DU-145 prostate
MDA-N = tested on: MDA-N
T-47D breast = tested on: T-47D breast
DLD-1 colon = tested on: DLD-1 colon
DMS 273 small cell lung = tested on: DMS 273 small cell lung
KM20L2 colon = tested on: KM20L2 colon
SNB-78 CNS = tested on: SNB-78 CNS

Compound	TGI (BT-549 breast)	TGI (DU-145 prostate)	TGI (T-47D breast)	GI50 (BT-549 breast)	GI50 (DU-145 prostate)	GI50 (T-47D breast)	further results
O=C(O)C1CC(O)CN1 (stereo unspecified)	> 100 µM	> 100 µM	> 100 µM				TGI (MDA-N): > 100 µM
C=C(c1ccccc1)[C@@]1(O)CC[C@@H]1N(CC#N)Cc1ccccc1	37.1 µM	> 100 µM	38.2 µM				TGI (DLD-1 colon): 36.4 µM; TGI (DMS 273 small cell lung): 39.7 µM; TGI (KM20L2 colon): > 100 µM; TGI (MDA-N): 40 µM; TGI (SNB-78 CNS): > 85.2 µM
N#CC1(C#N)C(C#N)(C#N)C12CCCCCC2							TGI (DLD-1 colon): 10.3 µM; TGI (DMS 273 small cell lung): 52.4 µM; TGI (KM20L2 colon): 32 µM; TGI (SNB-78 CNS): 38.5 µM
CC(=O)OCc1cc2ccccc2nc1C(Br)(Br)Br	27.2 µM	23.9 µM	> 100 µM				
O=c1c(O)c(-c2cc(O)c(O)c(O)c2)oc2cc(O)cc(O)c12	> 100 µM	> 100 µM	> 100 µM				TGI (MDA-N): 24.5 µM
O=C(OC[C@H]1O[C@H](OC(=O)c2cc(O)c(O)c(OC(=O)c3cc(O)c(O)c(O)c3)c2)[C@H](OC(=O)c2cc(O)c(O)c(OC(=O)c3cc(O)c(O)c(O)c3)c2)[C@@H](OC(=O)c2cc(O)c(O)c(OC(=O)c3cc(O)c(O)c(O)c3)c2)[C@@H]1OC(=O)c1cc(O)c(O)c(OC(=O)c2cc(O)c(O)c(O)c2)c1)c1cc(O)c(O)c(OC(=O)c2cc(O)c(O)c(O)c2)c1	> 25 µM	> 25 µM	16.6 µM	6.77 µM	3.57 µM	2.85 µM	
O=C1C(Cl)=C(NCc2ccco2)C(=O)c2ccccc21	50.7 µM	6.27 µM	73.7 µM	22 µM	2.6 µM	10.2 µM	
CCOC(=O)c1c2c(n3ccccc13)C(=O)c1ncccc1C2=O	41 µM	5.31 µM	47.8 µM	0.0637 µM	0.0466 µM	2.51 µM	
NC(N)=NS(=O)(=O)c1ccc(Nc2c3ccccc3nc3c(C(=O)Nc4ccc(S(N)(=O)=O)cc4)cccc23)cc1							TGI (DLD-1 colon): > 100 µM; TGI (DMS 273 small cell lung): > 100 µM; TGI (KM20L2 colon): > 100 µM; TGI (SNB-78 CNS): > 100 µM
CC(C)(c1ccccc1)c1ccc(OC#N)cc1							TGI (DLD-1 colon): > 62.5 µM; TGI (DMS 273 small cell lung): 30.7 µM; TGI (KM20L2 colon): > 100 µM; TGI (SNB-78 CNS): > 100 µM
CCOc1ccc2nc(NC(=O)C(=O)C(c3cnc4ccccc4n3)[N+](=O)[O-])sc2c1 (stereo unspecified)	> 100 µM		> 100 µM				TGI (MDA-N): > 100 µM
C=C1CC2(OC1=O)C(=O)Nc1ccccc12 (stereo unspecified)	17.1 µM	8.47 µM	2.92 µM	4.24 µM	2.54 µM	1.13 µM	
CN(C)c1ccc(/C=C/c2cc[n+](C)c(/C=C/c3ccc(N(C)C)cc3)c2)cc1	1.61 µM	11 µM	1.3 µM	0.349 µM	0.398 µM	0.152 µM	
COC(=O)/C=C/c1cc2c(cc1-c1c(C(=O)O)cc(OC)c(OC)c1OC)OCO2	> 10 µM	> 10 µM	> 10 µM				TGI (MDA-N): > 10 µM
COc1cc(C2CC(c3ccc(Nc4ccnc5cc(Cl)ccc45)cc3)=NN2c2ccc(Cl)cc2)cc(OC)c1OC (stereo unspecified)	> 100 µM	> 100 µM	> 100 µM	2.93 µM	8.08 µM	2.13 µM	
COc1ccc2c(c1)C(=O)c1c-2n(CCCI)c(=O)c2cc([N+](=O)[O-])ccc12		0.172 µM and 0.811 µM	1.65 µM and 8.64 µM	0.112 µM and 0.786 µM	0.0541 µM and 0.0341 µM	0.173 µM and 0.163 µM	

Compound	TGI (BT-549 breast)	TGI (DU-145 prostate)	TGI (T-47D breast)	GI50 (BT-549 breast)	GI50 (DU-145 prostate)	GI50 (T-47D breast)	further results
C[N+]1=C(/C=C\C=C\c2ccccc2)C(C)(C)c2ccccc21	9.29 µM	16.1 µM	5.36 µM	2.34 µM	4.62 µM	0.966 µM	
COC(=O)[C@@H](C)C[C@H](Cc1ccccc1)NC(=O)c1csc([C@@H](C[C@H](C(C)C)N(C)C(=O)[C@@H](NC(=O)[C@H]2CCCCN2C)C2CC2)OC(C)=O)n1	0.0298 µM and 0.0146 µM			0.000506 µM and 0.00165 µM	0.000311 µM		
Cn1cc(C(=O)C[n+]2ccccc2)c2ccccc21							TGI (DLD-1 colon): > 100 µM; TGI (DMS 273 small cell lung): > 100 µM; TGI (KM20L2 colon): > 100 µM
COC(=O)CC[C@H](Cc1ccccc1)NC(=O)c1csc([C@@H](C[C@H](C(C)C)N(C)C(=O)[C@@H](NC(=O)[C@H]2CCCCN2C)C(C)C)OC(C)=O)n1	0.137 µM	> 25 µM		0.00275 µM	< 0.0025 µM		
Cc1ccc(Cl)cc1NC(=O)c1sc2nc3c(cc2c1N)C(=O)CCC3		> 100 µM	> 100 µM		4.4 µM	> 100 µM	
N#C/C(=C\c1ccc(Br)cc1)n1nnc2ccc(F)cc21	3.63 µM		6.11 µM	0.671 µM		0.447 µM	
COc1cc(Nc2ncc(F)c(Nc3ccc4c(n3)N(COP(=O)(O)O)C(=O)C(C)(C)O4)n2)cc(OC)c1OC	4.45 µM and 6.5 µM	22.3 µM and > 10 µM	26 µM and > 10 µM	1.56 µM and 1.57 µM	3.69 µM and 3.08 µM	2.92 µM and 1.24 µM	
CCCCCCCc1cc2c3c(nc4ccccc42)C(=O)c2cccnc2-c3n1	33.2 µM	6.63 µM	20.7 µM	16.2 µM	2.54 µM	4.31 µM	GI50 (MDA-N): 4.44 µM; TGI (MDA-N): 9.12 µM
Cn1cc(-c2ccc(-c3ccc(C4=NC5(CC5)C(=O)N4C[C@@H]4CCN(C(=O)C5CC5)C4)cc3)cc2)cn1	26.1 µM		> 100 µM	6.09 µM		13.6 µM	
O=c1cccccc1[O-].O=c1cccccc1[O-].O=c1cccccc1[O-].[La+3]							GI50 (DLD-1 colon): 22.7 µM; TGI (DLD-1 colon): > 100 µM; GI50 (DMS 273 small cell lung): 5.98 µM; TGI (DMS 273 small cell lung): > 100 µM; GI50 (KM20L2 colon): 17 µM; TGI (KM20L2 colon): > 100 µM; GI50 (SNB-78 CNS): 10.5 µM; TGI (SNB-78 CNS): 86.9 µM
O=C(c1ccccc1)c1cn(/N=C\c2ccccc2)c(=O)nc1-c1ccccc1							TGI (DLD-1 colon): > 100 µM; TGI (KM20L2 colon): > 100 µM; TGI (SNB-78 CNS): > 100 µM
N#Cc1cccc(/C=N/N=C(\N)NO)c1							TGI (DLD-1 colon): > 100 µM; TGI (DMS 273 small cell lung): > 100 µM; TGI (SNB-78 CNS): > 100 µM
Cc1cnc(C(=O)NNc2nc3sc4c(c3c(=O)n2C)C(C)CCC4)cn1 (stereo unspecified)	14 µM	4.15 µM	5.68 µM	1.03 µM	0.458 µM	0.416 µM	
Cc1ncc(C(=O)Nc2ccc(CN3CCN(C)CC3)c(C(F)(F)F)c2)cc1C#Cc1cnc(N)cc1C#N	3.58 µM	2.75 µM	> 16.7 µM	1.36 µM	0.278 µM	> 16.7 µM	
C=CCC1C(=O)CC2(C)CC(=O)C(CC=C)C12C (stereo unspecified)							TGI (DLD-1 colon): > 100 µM; TGI (DMS 273 small cell lung): > 100 µM; TGI (KM20L2 colon): > 100 µM; TGI (SNB-78 CNS): > 100 µM
